In ChEMBL document CHEMBL1141069, “Impact of induced fit on ligand binding to the androgen receptor: a multidimensional QSAR study to predict endocrine-disrupting effects of environmental chemicals” (J Med Chem, 2005):

These molecules were tested against T1, Androgen receptor (Rattus norvegicus, UniProt P15207).
T1 sequence (P15207 whole entry): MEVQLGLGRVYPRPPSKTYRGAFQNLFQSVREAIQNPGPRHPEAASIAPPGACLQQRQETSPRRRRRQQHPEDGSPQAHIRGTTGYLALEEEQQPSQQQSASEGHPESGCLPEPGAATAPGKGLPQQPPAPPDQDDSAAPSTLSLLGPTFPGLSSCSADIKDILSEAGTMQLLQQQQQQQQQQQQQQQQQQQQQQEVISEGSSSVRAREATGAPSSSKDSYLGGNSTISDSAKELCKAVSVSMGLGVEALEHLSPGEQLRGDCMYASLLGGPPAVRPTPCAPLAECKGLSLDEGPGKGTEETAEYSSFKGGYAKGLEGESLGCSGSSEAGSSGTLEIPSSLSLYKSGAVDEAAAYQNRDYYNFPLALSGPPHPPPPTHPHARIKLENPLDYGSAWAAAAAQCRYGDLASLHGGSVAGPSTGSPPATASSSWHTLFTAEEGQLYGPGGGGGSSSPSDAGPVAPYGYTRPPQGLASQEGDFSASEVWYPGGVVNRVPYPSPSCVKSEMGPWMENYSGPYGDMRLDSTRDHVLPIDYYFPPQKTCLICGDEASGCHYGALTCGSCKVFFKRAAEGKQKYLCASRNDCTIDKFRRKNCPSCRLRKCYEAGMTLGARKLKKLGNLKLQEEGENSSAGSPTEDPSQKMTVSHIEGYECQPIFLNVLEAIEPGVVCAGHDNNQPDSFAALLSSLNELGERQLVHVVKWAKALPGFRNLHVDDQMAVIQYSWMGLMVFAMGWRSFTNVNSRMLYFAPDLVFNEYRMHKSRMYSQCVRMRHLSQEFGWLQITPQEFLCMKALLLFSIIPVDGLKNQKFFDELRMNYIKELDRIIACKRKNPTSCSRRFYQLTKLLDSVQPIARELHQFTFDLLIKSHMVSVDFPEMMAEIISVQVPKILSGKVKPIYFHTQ

Compound	IC50 [µM]
O=C(c1ccc(O)cc1)c1ccc(O)cc1	145
O=c1c(-c2ccc(O)cc2)coc2cc(O)cc(O)c12 [GENISTEIN]	85.1
CC/C(=C(\c1ccc(O)cc1)c1ccc(OCCN(C)C)cc1)c1ccccc1	9.33
C[C@]12CCCC[C@@H]1CC[C@@H]1[C@@H]2CC[C@]2(C)[C@@H](O)CC[C@@H]12	0.011
CCC(c1ccc(O)c(O)c1)C(CC)c1ccc(O)c(O)c1 (stereo unspecified)	37.2
C[C@]12CCC(=O)C=C1CC[C@@H]1[C@@H]2[C@@H](O)C[C@@]2(C)[C@H]1CC[C@]2(O)C(=O)CO [HYDROCORTISONE]	182
Clc1ccc(-c2ccc(Cl)cc2Cl)c(Cl)c1	17
CC(C)(c1ccc(O)cc1)c1ccc(O)cc1 [BISPHENOL A]	74.1
O=C1CC(c2ccc(O)cc2)Oc2ccccc21 (stereo unspecified) [4'-HYDROXY-FLAVANONE]	57.5
CCCCCCCCCc1ccc(OCCOCCO)cc1	18.2
Cc1ccc2c(c1)CC[C@@H]1[C@@H]2CC[C@]2(C)[C@@H](O)[C@@](C)(O)C[C@@H]12	37.2
C[C@H]1CCCC(=O)CCCCCc2cc(O)cc(O)c2C(=O)O1 (stereo in doubt; form 2) [ZEARALANONE]	10
O=C1CC(c2ccccc2)Oc2ccc(O)cc21 (stereo unspecified)	18.6
CCN(CC)CCOc1ccc(/C(=C(\Cl)c2ccccc2)c2ccccc2)cc1 [CLOMIPHENE]	13.5
CC1CC2=CC(=O)CC[C@@H]2[C@H]2CC[C@@]3(C)[C@@H](CC[C@]3(C)O)[C@H]12 (single isomer, unassigned) [MIBOLERONE]	0.00166
Cl/C=C(\c1ccc(Cl)cc1)c1ccccc1Cl	10.5
C[C@@]12CCC[C@H]1[C@@H]1CCc3cc(O)ccc3[C@H]1CC2	41.7
Oc1ccc(-c2cc(Cl)c(Cl)c(Cl)c2Cl)cc1	16.2
C[C@H]1CCCC(=O)CCCCCc2cc(O)cc(O)c2C(=O)O1 (stereo in doubt; form 1) [ZEARALANONE]	42.7

Compound	IC50 [µM]
COc1ccc2c(c1)CCC(c1ccccc1)=C2c1ccc(OCCN2CCCC2)cc1 [NAFOXIDINE]	12.9
O=c1cc(-c2ccccc2)oc2cc(O)ccc12 [7-HYDROXYFLAVONE]	> 42.7
ClC(Cl)=C(c1ccc(Cl)cc1)c1ccccc1Cl [O,P'-DDE (1,1-(O,P'-DICHLORODIPHENYL)-2,2 DICHLOROETHENE)]	20.4
C[C@]12C=CC3=C4CCC(=O)C=C4CCC3C1CC[C@@H]2O (stereo partly specified) [TRENBOLONE]	0.00263
COc1cc(C(=C(Cl)Cl)c2ccc(O)cc2)ccc1O [DIHYDROXYMETHOXYCHLOROLEFIN]	6.31
O=S1OCC2C(CO1)C1(Cl)C(Cl)=C(Cl)C2(Cl)C1(Cl)Cl (stereo unspecified) [ENDOSULFAN]	23.4
O=C(/C=C/c1ccc(O)cc1)c1ccccc1 [4-HYDROXYCHALCONE]	47.9
CCC(c1ccc(O)cc1)C(CC)c1ccc(OC)cc1 (stereo unspecified)	12.9
C[C@]12CC[C@@H]3c4ccccc4CC[C@H]3[C@@H]1CC[C@@H]2O	0.0891
C[C@]12CC[C@@H]3c4ccc(O)c(O)c4CC[C@H]3[C@@H]1CC[C@@H]2O	2.57
Cc1ccc2c(c1)CC[C@@H]1[C@@H]2CC[C@]2(C)[C@@H](O)[C@H](O)C[C@@H]12	53.7
ClC1=C(Cl)C2(Cl)C3C(Cl)C(Cl)CC3C1(Cl)C2(Cl)Cl (stereo unspecified) [CHLORDANE]	10
Clc1ccc(-c2ccccc2Cl)cc1	16.2
Oc1ccc(/C=C/c2ccc(O)cc2)cc1 [TRANS-4,4'-DIHYDROXYSTILBENE]	83.2
COc1ccc(C(=C(Cl)Cl)c2ccc(O)cc2)cc1	20.4
O=C(/C=C/c1ccccc1)c1ccc(O)cc1 [4'-HYDROXYCHALCONE]	57.5
O=C(/C=C/c1ccccc1)c1ccccc1 [CHALCONE]	64.6
O=C(O)COc1cc(Cl)c(Cl)cc1Cl [2,4,5-TRICHLOROPHENOXYACETIC ACID]	457
Oc1ccc(/C=C/c2ccccc2)cc1 [(E)-4-STYRYLPHENOL]	41.7

Compound	IC50 [µM]
O=C1C[C@@H]2C(=O)CC[C@H]2[C@@H]2CC[C@H]3CCCC[C@@H]3[C@@H]12	0.0891
C[C@]12CC[C@@H](O)C[C@@H]1CC[C@@H]1[C@@H]2CC[C@]2(C)C(O)CC[C@@H]12 (stereo partly specified)	2
O=c1cc(-c2ccccc2)oc2ccccc12 [FLAVONE]	77.6
CCCCCCCOc1ccc(O)cc1	14.8
C[C@]12CC[C@H]3[C@@H](CCC4(OC(=O)c5ccccc5)CC(=O)CC[C@]34C)[C@@H]1CC[C@@H]2O (stereo partly specified) [DHT BENZOATE]	0.257
O=C(c1ccccc1)c1ccc(O)cc1	182
Oc1c(Cl)cc(-c2cc(Cl)c(O)c(Cl)c2)cc1Cl	38
COc1cc(C=O)ccc1O [VANILLIN]	> 427
c1ccc([C@H]2COC[C@H]2c2ccccc2)cc1	28.8
O=C(c1ccccc1)c1ccccc1 [BENZOPHENONE]	129
C[C@]12CC[C@@H]3c4cc(O)c(O)cc4CC[C@H]3[C@@H]1CC[C@@H]2O	8.51
O=c1cc(-c2ccccc2)oc2ccc(O)cc12 [6-HYDROXYFLAVONE]	182
C/C(=C(/C)c1ccc(O)cc1)c1ccc(O)cc1 [DIMETHYLSTILBESTROL]	14.1
C[C@]12CCC(=O)C=C1CC[C@@H]1[C@@H]2[C@@H](O)C[C@]2(C=O)[C@@H](C(=O)CO)CC[C@@H]12 [ALDOSTERONE]	> 42.7
Oc1ccc([C@H]2COc3cc(O)ccc3C2)cc1 [AUS-131]	74.1
Oc1ccc(OCc2ccccc2)cc1 [MONOBENZONE]	234
O=C1CC(c2ccccc2)Oc2ccccc21 (stereo unspecified) [FLAVANONE]	55
COc1ccc(C(=C(Cl)Cl)c2ccc(OC)cc2)cc1	49
